Measured values published in ChEMBL document CHEMBL4196001, “Design, semisynthesis, α-glucosidase inhibitory, cytotoxic, and antibacterial activities of p-terphenyl derivatives” (Eur J Med Chem, 2018).
In brackets after ≈: the same amount, converted by molar mass. Activity calls are given as the source filed them. The calls are words filed in the database; no cut-off is given here.

Legend:
[1] = biological target: Alpha glucosidase (Homo sapiens, UniProt O43451+P10253+P14410+Q2M2H8); assay: Inhibition of human alpha-glucosidase expressed in Saccharomyces cerevisiae using p-nitrophenyl-alpha-D-glucopyranoside as substrate after 15 mins
[2] = Cytotoxicity against human Chang cells by SRB assay; type: cell-based
[3] = system: A549; assay: Cytotoxicity against human A549 cells at 10 uM by SRB assay; type: functional, cell-based
[4] = system: HeLa; assay: Cytotoxicity against human HeLa cells at 10 uM by SRB assay; type: functional, cell-based
[5] = system: HepG2; assay: Cytotoxicity against human HepG2 cells at 10 uM by SRB assay; type: functional, cell-based
[6] = system: Staphylococcus aureus; assay: Antibacterial activity against Staphylococcus aureus after 24 hrs by broth macrodilution method; type: functional
[7] = Cytotoxicity against human Chang cells at 10 uM by SRB assay; type: cell-based
[8] = system: alpha-glucosidase; assay: Therapeutic index, ratio of CC50 for human Chang cells to IC50 for human alpha-glucosidase expressed in Saccharomyces cerevisiae; type: toxicity; conditions: read-out: Ratio CC50/IC50
[9] = system: MDA-MB-435; assay: Cytotoxicity against human MDA-MB-435 cells; type: functional, cell-based
[10] = system: A549; assay: Cytotoxicity against human A549 cells by SRB assay; type: functional, cell-based
[11] = system: HeLa; assay: Cytotoxicity against human HeLa cells by SRB assay; type: functional, cell-based
[12] = system: HepG2; assay: Cytotoxicity against human HepG2 cells by SRB assay; type: functional, cell-based
[13] = system: HeLa; assay: Cytotoxicity against human HeLa cells after 3 days by hematoxylin-eosin staining-based assay; type: functional; conditions: 72 h, read-out: ID50 (the source's name)

With `CCCOc1c(OC)c(-c2ccc(O)cc2)cc(OC)c1-c1ccc(O)cc1` the IC50 [1] was 19.3 µM, the CC50 [2] was 14.5 µM and the Activity [3] was “inactive”. For the same compound, the Activity [4] was “inactive”, the Activity [5] was “inactive” and the MIC [6] was 6.25 µM (≈ 2.38 µg/mL).
In the case of `COc1c(Br)c(-c2ccc(O)cc2)c(OC)c(O)c1-c1ccc(O)cc1`, the IC50 [1] is reported as 7.14 µM, the Activity [3] is reported as “inactive” and the Activity [4] is reported as “inactive”. The Activity [5] was “inactive”, the Activity [7] was “Non-Toxic” and the MIC [6] was 1.56 µM (≈ 0.651 µg/mL).
For `COc1cc(-c2ccc(O)cc2)c(OC)c(OCC=C(C)C)c1-c1ccc(O)cc1`, the IC50 [1] was 23.4 µM, the CC50 [2] was 15.9 µM and the Activity [3] was “inactive”. The Activity [4] was “inactive”, the Activity [5] was “inactive” and the MIC [6] was 6.25 µM (≈ 2.54 µg/mL).
For `COc1cc(-c2ccc(O)cc2)c(O)c(O)c1-c1ccc(O)cc1`, the IC50 [1] was 13.2 µM, the selectivity ratio [8] was 17 and the CC50 [2] was 224 µM. For the same compound, the Activity [3] was “inactive”, the Activity [4] was “inactive” and the Activity [5] was “inactive”.
With `COc1cc(-c2ccc(O)c(O)c2)c(OC)c(O)c1-c1ccc(O)c(O)c1` the IC50 [1] was 14 µM, the IC50 [9] was < 20 µM and the Activity [3] was “inactive”. For the same compound, the Activity [4] was “inactive”, the Activity [5] was “inactive” and the Activity [7] was “Non-Toxic”.
In the case of `C#CCOc1ccc(-c2cc(OC)c(-c3ccc(O)cc3)c(OCC#C)c2OC)cc1`, the IC50 [1] is reported as 20.1 µM, the CC50 [2] is reported as 2.31 µM and the IC50 [10] is reported as 0.79 µM. The IC50 [11] was 0.68 µM and the IC50 [12] was 1.23 µM.
With `C=CCOc1ccc(-c2cc(OC)c(-c3ccc(O)cc3)c(OCC=C)c2OC)cc1` the IC50 [1] was 8.77 µM, the CC50 [2] was < 0.62 µM and the IC50 [10] was 0.25 µM. For the same compound, the IC50 [11] was 0.15 µM and the IC50 [12] was 0.43 µM.
For `COc1cc(-c2ccc(O)cc2)c(OC)c(O)c1-c1ccc(O)c(O)c1`, the IC50 [1] was 11.3 µM, the IC50 [9] was < 20 µM and the Activity [3] was “inactive”. The Activity [4] was “inactive”, the Activity [5] was “inactive” and the Activity [7] was “Non-Toxic”.
With `COc1cc(-c2ccc(OCc3ccccc3)cc2)c(OC)c(O)c1-c1ccc(O)cc1` the IC50 [1] was 12.5 µM, the CC50 [2] was 39.1 µM and the Activity [3] was “inactive”. The Activity [4] was “inactive”, the Activity [5] was “inactive” and the MIC [6] was 6.25 µM (≈ 2.68 µg/mL).
In the case of `C=CCOc1ccc(-c2c(OC)cc(-c3ccc(O)cc3)c(OC)c2O)cc1`, the IC50 [1] is reported as 32.2 µM, the CC50 [2] is reported as 0.57 µM and the IC50 [10] is reported as 0.17 µM. For the same compound, the IC50 [11] was 1.02 µM, the IC50 [12] was 0.95 µM and the MIC [6] was 6.25 µM (≈ 2.37 µg/mL).
With `CCCOc1ccc(-c2cc(OC)c(-c3ccc(O)cc3)c(O)c2OC)cc1` the IC50 [1] was 10 µM, the selectivity ratio [8] was 10 and the CC50 [2] was 98.5 µM. For the same compound, the Activity [3] was “inactive”, the Activity [4] was “inactive” and the Activity [5] was “inactive”.
In the case of `COc1cc(-c2ccc(OCC=C(C)C)cc2)c(OC)c(O)c1-c1ccc(O)cc1`, the IC50 [1] is reported as 20.1 µM, the CC50 [2] is reported as 26.2 µM and the Activity [3] is reported as “inactive”. For the same compound, the Activity [4] was “inactive”, the Activity [5] was “inactive” and the MIC [6] was 6.25 µM (≈ 2.54 µg/mL).
In the case of `COc1cc(-c2ccccc2)c(OC)c(O)c1-c1ccc(O)cc1`, the IC50 [1] is reported as 108.2 µM, the IC50 [13] is reported as 32 mg/L (≈ 99.3 µM) and the Activity [3] is reported as “inactive”. The Activity [4] was “inactive”, the Activity [5] was “inactive” and the Activity [7] was “Non-Toxic”.
In the case of `COc1cc(-c2ccc(O)cc2)c(OC)c(OCc2ccccc2)c1-c1ccc(O)cc1`, the IC50 [1] is reported as 19.1 µM, the CC50 [2] is reported as 17.1 µM and the Activity [3] is reported as “inactive”. For the same compound, the Activity [4] was “inactive”, the Activity [5] was “inactive” and the MIC [6] was 6.25 µM (≈ 2.68 µg/mL).
For `COc1cc(-c2ccc(O)cc2)c(OC)c(O)c1-c1ccc(OCc2ccccc2)cc1`, the IC50 [1] was 12.5 µM, the CC50 [2] was 23.1 µM and the Activity [3] was “inactive”. For the same compound, the Activity [4] was “inactive”, the Activity [5] was “inactive” and the MIC [6] was 6.25 µM (≈ 2.68 µg/mL).
In the case of `COc1cc(-c2ccc(O)cc2)c(OC)c(OCCBr)c1-c1ccc(O)cc1`, the IC50 [1] is reported as 18.8 µM, the CC50 [2] is reported as 39.1 µM and the Activity [3] is reported as “inactive”. The Activity [4] was “inactive”, the Activity [5] was “inactive” and the MIC [6] was 6.25 µM (≈ 2.78 µg/mL).
